Test results: patent US9957271B2, “Substituted bicyclic aza-heterocycles and analogues as sirtuin modulators” (GlaxoSmithKline, LLC, priority 2012, dated 2018)

How the values were obtained:
SIRT1 [1] = biological target: T1, SIRT1 (Homo sapiens, UniProt Q96EB6); assay: TAMRA based mass spectrometry assay of SIRT1 activity; assay type: biochemical; details: for Emax: read-out: TAMRA % Fold Act
T1 sequence (Q96EB6 1-747): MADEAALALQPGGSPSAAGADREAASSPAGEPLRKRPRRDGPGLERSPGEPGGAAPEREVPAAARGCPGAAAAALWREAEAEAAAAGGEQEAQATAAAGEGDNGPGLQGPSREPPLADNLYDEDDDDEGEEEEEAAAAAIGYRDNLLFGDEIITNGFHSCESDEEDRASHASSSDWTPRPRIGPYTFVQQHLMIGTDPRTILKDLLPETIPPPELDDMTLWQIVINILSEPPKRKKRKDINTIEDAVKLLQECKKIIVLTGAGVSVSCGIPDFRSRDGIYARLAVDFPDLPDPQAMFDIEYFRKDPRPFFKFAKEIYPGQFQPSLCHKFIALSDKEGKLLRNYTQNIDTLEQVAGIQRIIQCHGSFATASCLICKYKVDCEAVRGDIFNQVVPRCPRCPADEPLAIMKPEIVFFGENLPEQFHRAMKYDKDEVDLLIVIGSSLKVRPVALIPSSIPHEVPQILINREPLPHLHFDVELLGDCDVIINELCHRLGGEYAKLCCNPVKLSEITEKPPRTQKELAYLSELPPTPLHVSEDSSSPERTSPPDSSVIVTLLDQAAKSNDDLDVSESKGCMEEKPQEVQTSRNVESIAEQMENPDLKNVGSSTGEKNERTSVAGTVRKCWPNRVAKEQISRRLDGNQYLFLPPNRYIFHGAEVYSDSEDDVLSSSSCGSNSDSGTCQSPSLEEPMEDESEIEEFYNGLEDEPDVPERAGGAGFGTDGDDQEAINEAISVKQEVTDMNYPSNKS
How it was run: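 Deacetylation of a biotinylated, TAMRA-tagged p53-based peptide (0.5 μM) by 10 nM His-tagged SIRT1 with 120 μM βNAD+, 25 °C for 25 min, pH 8 Tris-acetate buffer, across a compound concentration range. Quenched by formic acid and read by mass spec as product peptide or OAADPR; activity relative to DMSO reactions, nicotinamide defining maximal inhibition.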

SIRT1 [2] = biological target: T1, SIRT1; assay: Trp mass spectrometry assay of SIRT1 activity; assay type: biochemical; details: for Emax: read-out: Trp % Fold Act
How it was run: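 Activation readout: EC1.5 (concentration raising activity 50% over control) and percent maximum activation, from mass-spec quantitation of OAADPR or deacetylated Trp peptide. Reaction: 0.5 μM acetylated Trp peptide, 120 μM βNAD+, 10 nM bacterially expressed N-His SIRT1, pH 7.5 HEPES buffer with […], 25 min at 25° C.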

[3] = concentration of test compound giving 150% activation of SIRT1, TAMRA peptide substrate
[4] = percent maximum fold activation of SIRT1, TAMRA peptide substrate
[5] = concentration of test compound giving 150% activation of SIRT1, Trp peptide substrate
[6] = percent maximum fold activation of SIRT1, Trp peptide substrate
[7] = TAMRA assay, concentration giving 150% activation of SIRT1
[8] = TAMRA assay, percent maximum fold activation
[9] = Trp assay, concentration giving 150% activation of SIRT1
[10] = Trp assay, percent maximum fold activation

Row | SMILES | TAMRA EC1.5 (μM) (SIRT1 [1]; [3]) | Emax (SIRT1 [1]; [4]) [%] | Trp EC1.5 (μM) (SIRT1 [2]; [5]) | Emax (SIRT1 [2]; [6]) [%] | TAMRA EC1.5 (μM) (SIRT1 [1]; [7]) | Emax (SIRT1 [1]; [8]) [%] | Trp EC1.5 (μM) (SIRT1 [2]; [9]) | Emax (SIRT1 [2]; [10]) [%]
1 | O=C(Nc1ccnc(N2CCC2)c1)c1cnc2ccc(-c3c(F)cccc3F)nn12 [Compound 170] | A (EC1.5<1 μM) | < 350 | B (EC1.5 1-25 μM) | < 350 |  |  |  | 
2 | O=C(Nc1cccc(CN2CCOCC2)n1)c1cnc2ccc(-c3c(F)cccc3F)nn12 [Compound 172] | B (EC1.5 1-25 μM) | ≥ 350 | C (EC1.5>25 μM) | < 350 |  |  |  | 
3 | COc1nccc(NC(=O)c2cnc3ccc(-c4ccccc4C(F)(F)F)nn23)n1 [Compound 173] | A (EC1.5<1 μM) | ≥ 350 | B (EC1.5 1-25 μM) | ≥ 350 |  |  |  | 
4 | COc1ccnc(NC(=O)c2cnc3ccc(-c4ccccc4C(F)(F)F)nn23)n1 [Compound 175] | A (EC1.5<1 μM) | ≥ 350 | B (EC1.5 1-25 μM) | ≥ 350 |  |  |  | 
5 | O=C(Nc1cnccc1N1CCOCC1)c1cnc2ccc(-c3ccccc3C(F)(F)F)nn12 [Compound 177] | C (EC1.5>25 μM) | < 350 | C (EC1.5>25 μM) | < 350 |  |  |  | 
6 | O=C(Nc1ccccn1)c1cnc2ccc(-c3cccc(F)c3Cl)nn12 [Compound 182] | B (EC1.5 1-25 μM) | < 350 | B (EC1.5 1-25 μM) | < 350 |  |  |  | 
7 | O=C(Nc1cccnc1)c1cnc2ccc(-c3cccc(F)c3Cl)nn12 [Compound 183] | B (EC1.5 1-25 μM) | < 350 | C (EC1.5>25 μM) | < 350 |  |  |  | 
8 | CS(=O)(=O)c1ccccc1-c1ccc2ncc(C(=O)Nc3ccnc(N4CCC4)c3)n2n1 [Compound 186] | B (EC1.5 1-25 μM) | < 350 | C (EC1.5>25 μM) | < 350 |  |  |  | 
9 | CS(=O)(=O)c1ccccc1-c1ccc2ncc(C(=O)Nc3cccnc3)n2n1 [Compound 189] | C (EC1.5>25 μM) | < 350 | C (EC1.5>25 μM) | < 350 |  |  |  | 
10 | Cc1cc(-c2ccccc2C(F)(F)F)nn2c(C(=O)Nc3cccc(N4CCOCC4)n3)cnc12 [Compound 192] | A (EC1.5<1 μM) | ≥ 350 | A (EC1.5<1 μM) | ≥ 350 |  |  |  | 
11 | COc1cc(NC(=O)c2cnc3ccc(-c4ccccc4C(F)(F)F)nn23)ncn1 [Compound 197] |  |  |  |  | A (EC1.5<1 μM) | ≥ 350 | B (EC1.5 1-25 μM) | < 350
12 | COc1cc(OC)nc(NC(=O)c2cnc3ccc(-c4ccccc4C(F)(F)F)nn23)n1 [Compound 198] |  |  |  |  | A (EC1.5<1 μM) | ≥ 350 | B (EC1.5 1-25 μM) | < 350
13 | Cc1cc(-c2ccccc2C(F)(F)F)nn2c(C(=O)Nc3cccnc3)cnc12 [Compound 206] |  |  |  |  | B (EC1.5 1-25 μM) | ≥ 350 | B (EC1.5 1-25 μM) | ≥ 350
14 | Cc1cc(-c2ccccc2C(F)(F)F)nn2c(C(=O)Nc3ccnc(N4CCC4)c3)cnc12 [Compound 207] |  |  |  |  | A (EC1.5<1 μM) | ≥ 350 | A (EC1.5<1 μM) | ≥ 350
15 | Cc1cc2ncc(C(=O)Nc3cccnc3)n2nc1-c1ccccc1C(F)(F)F [Compound 210] |  |  |  |  | B (EC1.5 1-25 μM) | ≥ 350 | B (EC1.5 1-25 μM) | ≥ 350
